Measured values taken from US9527852B2 (Neuropore Therapies, Inc., priority 2012, dated 2016).

What was measured:
[1] = test system: neuronal cells infected with LV-α-synuclein; experiment: Calcein assay of membrane integrity (FLIPR); assay type: cell-based; details: for Percent reversal of α-Syn mediated disruption of cell integrity (0.01 μM test compound): calcein assay
Experimental: (§1) Next, to ascertain the effects on neuronal activity, cells were infected with LV-α-synuclein for 24 h, treated with Example 2 at 0, 0.01, 0.1 and 1 μM for 24 h in serum free media, loaded with Fluo-4 or calcein, and analyzed by FLIPR assay to determine Ca^2+ and calcein levels. […] Finally, to examine the effects Example 2 on neuronal survival, an MTT cell viability assay was performed. […] All cell free and cell based assays were repeated at least 3 times and experiments were performed blinded to sample identity.

[2] = target: T1, α-synuclein (wild type) expressed by lentivirus in a neuronal cell line (Homo sapiens, UniProt P37840); experiment: Cell-based α-synuclein aggregation by immunoblot; details: soluble and insoluble fractions; test compound 0, 0.1, 1 and 10 μM for 24 h
T1 construct: expressed in transfected cells

neuronal cells = experiment: MTT cell viability assay; assay type: cell-based
Experimental: as §1

Recombinant α-synuclein = Recombinant α-synuclein (Homo sapiens, UniProt P37840); experiment: Cell-free α-synuclein aggregation assay (SDS-PAGE, immunoblot); assay type: biochemical; details: 10 μM α-synuclein, 37° C. 16 h then 56° C. 6 h, immunoblot (FIG. 1)
Experimental: Recombinant α-synuclein (10 μM) are incubated at 37° C. for 16 h and then at 56° C. for 6 h with test compound. […] After incubation, the mixture is run on a SDS-PAGE gel, followed by immunoblot testing with α-synuclein antibodies.

[3] = test system: neuronal cells infected with LV-α-synuclein; experiment: Ca2+ levels by FLIPR assay (Fluo-4); assay type: cell-based; details: 0, 0.01, 0.1 and 1 μM for 24 h in serum free media, Fluo-4 (FIG. 3B)
Experimental: as §1

[4] = test system: Neuronal cells expressing high levels of α-synuclein; experiment: Neurite outgrowth (Tubulin III antibody); assay type: cell-based; details: 0.1 and 1.0 μM (FIG. 3A)
[5] = target: T1, α-synuclein (wild type) expressed by lentivirus in a neuronal cell line; experiment: Cell-based α-synuclein accumulation by confocal microscopy; details: test compound 0, 0.1, 1 and 10 μM for 24 h (FIG. 2)

CCCCc1cc(OCc2c[nH]c3ccccc23)cc(OC(=O)NCCN2CCN(C)CC2)c1 [Example 1]
Percent reversal of α-Syn mediated disruption of cell integrity (0.01 μM test compound) [1]: 26.8%

CCc1cc(NC(=O)NCCN)ccc1Cc1c[nH]c2ccccc12 [Example 4, 1-(4-((1H-indol-3-yl)methyl)-3-ethylphenyl)-3-(2-aminoethyl)urea]
Percent reversal of α-Syn mediated disruption of cell integrity (0.01 μM test compound) [1]: 25.9%

CCc1cc(NC(=O)NCCc2cnc[nH]2)ccc1Cc1c[nH]c2ccccc12 [Example 6, 1-(2-(1H-imidazol-5-yl)ethyl)-3-(4-((1H-indol-3-yl)methyl)-3-ethylphenyl)urea]
Percent reversal of α-Syn mediated disruption of cell integrity (0.01 μM test compound) [1]: 37.5%

CCCCc1cc(NC(=O)NCCN2CCN(C)CC2)cc(O)c1Cc1c[nH]c2ccccc12 [Example 2, 1-(4-((1H-Indol-3-yl)methyl)-3-butyl-5-hydroxyphenyl)-3-(2-(4-methylpiperazin-1-yl)ethyl)urea]
effect on calcein retention in the cytoplasm ([1]; 0, 0.01, 0.1 and 1 μM for 24 h in serum free media (FIG. 3C)): reversed the effect of α-synuclein on levels of calcein
Percent reversal of α-Syn mediated disruption of cell integrity (0.01 μM test compound) [1]: 34.1%
reduction in the levels of aggregates in the various fractions (immunoblot) [2]: 50-60%
toxicity in MTT cell viability assay (neuronal cells; at 10 μM (FIG. 3D)): mild toxicity
toxic effects in MTT cell viability assay (neuronal cells; doses ranging from 0.1-10 μM (FIG. 3D)): no toxic effects
inhibition of aggregation of α-synuclein into oligomers (Recombinant α-synuclein): capable of inhibiting the aggregation of α-synuclein into oligomers in a concentration-dependent manner
effect on Ca2+ levels [3]: restored concentrations of Ca^2+ to those in cells not infected with LV-α-synuclein
effect on neurite extension and cellular morphology [4]: ameliorated the deleterious effects on neurite extension and improved cellular morphology
reduction in the level of aggregates in the neuronal cell bodies and neurites (confocal microscopy) [5]: 60-65%

CCc1cc(NC(=O)NCCN2CCNCC2)ccc1Cc1c[nH]c2ccccc12 [Example 5, 1-(4-((1H-Indol-3-yl)methyl)-3-ethylphenyl)-3-(2-(piperazin-1-yl)ethyl)urea]
Percent reversal of α-Syn mediated disruption of cell integrity (0.01 μM test compound) [1]: 89.5%

CCc1cc(NC(=O)NCCN2CCN(C)CC2)ccc1Cc1c[nH]c2ccccc12 [Example 3, 1-(4-((1H-indol-3-yl)methyl)-3-ethylphenyl)-3-(2-(4-methylpiperazin-1-yl)ethyl)urea]
Percent reversal of α-Syn mediated disruption of cell integrity (0.01 μM test compound) [1]: 18.9%
